Source: patent US5026698A, “Thienopyridine type mevalonolactones” (Nissan Chemical Industries, Ltd., priority 1988, dated 1991)

What was measured:
[1] = tested on: cholesterol biosynthesis; assay: Test C: Inhibition of cholesterol biosynthesis in vivo; parameters: species or system Male Sprague-Dawley rats; details: oral, 0.2 mg/kg, rats; DPM/2 ml serum/2 hours
Description: Male Sprague-Dawley rats weighing about 150 g were fed normal Purina chow diet and water ad libitum, and exposed to 12 hours light/12 hours dark lighting pattern (2:00 PM-2:00 AM dark) prior to use for in vivo inhibition test of cholesterol biosynthesis. Animals were separated groups consisting of five rats as to be average mean body weight in each groups. Test compounds at dosage of 0.02-0.2 mg/kg body weight (0.4 ml/100 g body weight), were dissolved in water or suspended in 0 5% methyl cellulose and orally administered at 2-3 hours before mid-dark (8:00 PM), while cholesterol biosynthesis reaches to maximum in rats. As control, rats were orally administered only water or vehicle. At 90 minutes after sample administration, rats were injected intraperitoneally with 10 μCi of [2-^14 C]sodium acetate at volume of 0.2 ml per one. 2 Hours later, blood samples were obtained and serum were separated immediately. Total lipids were extracted according to the method of Folch et al. and saponified with EtOH-KOH. Nonsaponifiable lipids were extracted with petroleum ether and radio activity incorporated into nonsaponifiable lipids was counted.
Inhibitory activity was indicated as percent decrease of counts in testing groups (DPM/2 ml serum/2 hours) from that in control group.

[2] = tested on: cholesterol biosynthesis in Hep G2 cells; assay: Test B-1: Inhibition of cholesterol biosynthesis in culture cells (Hep G2, [2-14C]sodium acetate added at 0 hr); type: cell-based; details: for Relative activities by Test B-1: based on the activity of CS-514 by Test B-1 being evaluated to be 1; for inhibition at 1 µM: 1.0 × 10^-6 mol/l, read-out: Inhibitory activities at a concentration of 1.0 × 10^-6 mol/l by Test B-1 (Relative activities)
Description: Hep G2 cells at over 5th passage were seeded to 12 well plates and incubated with Dulbecco's modified Eagle (DME) medium containing 10% of fetal bovine serum (FBS) at 37° C., 5% CO2 until cells -were confluent for about 7 days. Cells were exposed to the DME medium containing 5% of lipoprotein deficient serum (LpDS) prepared by ultracentrifugation method for over 24 hours. Medium was changed to 0.5 ml of fresh 5% LpDS containing DME before assay and 10 μl of test compound solution dissolved in water or DMSO were added. 0.2 μCi of [2-^14 C]sodium acetate (20 μl) was added at 0 hr(B 1) or 4 hrs(B 2) after addition of compounds. After 4 hrs further incubation with [2-^14 C]sodium acetate, medium was removed and cells were washed with phosphate buffered saline (PBS) chilled at 4° C. Cells were scraped with rubber policeman and collected to tubes with PBS and digested with 0.2 ml of 0.5N KOH at 37° C. Aliquot of digestion was used for protein analysis and remaining was saponified with 1 ml of 15% EtOH-KOH at 75° C. for 1 hour. Nonsaponifiable lipids were extracted with petroleum ether and ^14 C radioactivity was counted. Counts were revised by cell protein and indicated with DPM/mg protein. Inhibitory activity of compounds was indicated with IC50. With respect to the compounds of the present invention, the inhibitory activities against the cholesterol biosynthesis in which HMG-CoA reductase serves as a rate limiting enzyme, were measured by the above Test A and B.

[3] = tested on: cholesterol biosynthesis; assay: Test A: Inhibition of cholesterol biosynthesis from acetate in vitro (rat liver microsome and sup fraction, [2-14C]sodium acetate); type: biochemical, male Wistar rat; details: for Relative activities by Test A: based on the activity of CS-514 by Test A being evaluated to be 1
Description: Enzyme solution was prepared from liver of male Wistar rat billialy connulated and discharged bile for over 24 hours. Liver was cut out at mid-dark and microsome and supernatant fraction which was precipitable with 40-80% of solution of ammonium sulfate (sup fraction) were prepared from liver homogenate according to the modified method of Knauss et. al.; Kuroda, M., et. al., Biochim. Biophys. Acta, 489, 119 (1977). For assay of cholesterol biosynthesis, microsome (0.1 mg protein) and sup fraction (1.0 mg protein) were incubated for 2 hours at 37° C. in 200 μl of the reaction mixture containing ATP; 1 mM, Glutathione; 6 mM, Glucose-1-phosphate; 10 mM, AND; 0.25 mM, NADP; 0.25 mM, CoA; 0.04 mM and 0.2 mM [2-^14 C]sodium acetate (0.2 μCi) with 4 μl of test compound solution dissolved in water or dimethyl sulfoxide. To stop reaction and saponify, 1 ml of 15% EtOH-KOH was added to the reactions and heated at 75° C. for 1 hour. Nonsaponifiable lipids were extracted with petroleum ether and incorporated ^14 C radioactivity was counted. Inhibitory activity of compounds was indicated with IC50.
With respect to the compounds of the present invention, the inhibitory activities against the cholesterol biosynthesis in which HMG-CoA reductase serves as a rate limiting enzyme, were measured by the above Test A and B. The results are shown in Tables 2, 3-1 and 3-2.
The relative activities of the compounds of the present invention based on the activities of CS-514 by Test A being evaluated to be 1, are shown in Table 2.

[4] = Test D: Acute toxicity; details: mouse, in vivo, 1000 mg/kg; oral, 1,000 mg/kg, 0.5% CMC suspension, ICR male mice (group of three); read-out: mortality after seven days
Description: A 0.5% CMC suspension of a test compound was orally administered to ICR male mice (group of three mice). The acute toxicity was determined based on the mortality after seven darys. With compound I-5-1, I-5-2, I-5-8, I-5-9 and I-5-10 of the present ivnention, the mortality was 0% even when they were orally administered in an amount of 1,000 mg/kg, respectively.

[5] = Homo sapiens, HepG2, Hep G2 cells

| Structure (SMILES) | Relative activities by Test B-1 [2] | Relative activities by Test A [3] | mortality at 168 h [4] | inhibition at 1 µM [2, 5] | other results |
| --- | --- | --- | --- | --- | --- |
| O=C1C[C@H](O)C[C@@H](/C=C/c2c(C3CC3)nc3sccc3c2-c2ccc(F)cc2)O1 (relative stereo) [Compound I-3-11, (E)-trans-6-[2'-(6"-cyclopropyl-4"-(4"'-fluorophenyl)-thieno[2,3-b]pyridin-5"-yl)ethenyl]-4-hydroxy-3,4,5,6-tetrahydro-2H-pyran-2-one] |  |  |  |  | percent decrease of counts relative to control group (Test C) [1]: 68% |
| CC[C@H](C)C(=O)O[C@H]1C[C@H](O)C=C2C=C[C@H](C)[C@H](CC[C@@H](O)C[C@@H](O)CC(=O)O)[C@H]21 [CS-514, reference compound] |  |  |  |  | percent decrease of counts relative to control group (Test C) [1]: 34%; IC50 ([2]; Homo sapiens, HepG2, Hep G2 cells, [2-14C]sodium acetate added at 0 hr): 1370 nM; IC50 ([3]; rat liver microsome + sup fraction, 2 hours at 37° C.): 9 nM |
| CCOC(=O)CC(O)CC(O)/C=C/c1c(C(C)C)nc2sc(C)c(CC)c2c1-c1ccc(F)cc1 (stereo not shown) [Compound I-1-1, Ethyl (E)-7-[3'-ethyl-4'-(4"-fluorophenyl)-2'-methyl-6'-(1"-methylethyl)thieno[2,3-b]pyridin-5'-yl]-3,5-dihydroxyhept-6-enoate] | 196 | 0.50 |  |  |  |
| CCc1c(C)sc2nc(C(C)C)c(/C=C/C(O)CC(O)CC(=O)O)c(-c3ccc(F)cc3)c12 (stereo not shown) [Compound I-5-1, Sodium (E)-7-[3'-ethyl-4'-(4"-fluorophenyl)-2'-methyl-6'-(1"-methylethyl)thieno[2,3-b]pyridin-5'-yl]-3,5-dihydroxyhept-6-enoate] | 152 | 0.55 | 0% |  |  |
| Cc1cc2c(-c3ccc(F)cc3)c(/C=C/C(O)CC(O)CC(=O)O)c(C(C)C)nc2s1 (stereo not shown) [Compound I-5-2] | 76 | 0.51 | 0% |  |  |
| CC(C)c1nc2sc(-c3ccccc3)cc2c(-c2ccc(F)cc2)c1/C=C/C(O)CC(O)CC(=O)O (stereo not shown) [Compound I-5-3] |  |  |  | 46.8% |  |
| Cc1sc2nc(C(C)C)c(/C=C/C(O)CC(O)CC(=O)O)c(-c3ccc(F)cc3)c2c1-c1ccccc1 (stereo not shown) [Compound I-5-4] | 1.4 |  |  | 48.2% |  |
| CC(C)c1cc2c(-c3ccc(F)cc3)c(/C=C/C(O)CC(O)CC(=O)O)c(C(C)C)nc2s1 (stereo not shown) [Compound I-5-5] | 62 | 0.31 |  | 69.8% |  |
| CC(C)c1nc2sc3c(c2c(-c2ccc(F)cc2)c1/C=C/C(O)CC(O)CC(=O)O)CCCC3 (stereo not shown) [Compound I-5-6] | 152 | 4.1 |  |  |  |
| CCc1c(C)sc2nc(C3CC3)c(/C=C/C(O)CC(O)CC(=O)O)c(-c3ccc(F)cc3)c12 (stereo not shown) [Compound I-5-7] |  | 0.36 |  | 64.1% |  |
| CC(C)c1nc2sc3c(c2c(-c2ccc(F)cc2)c1/C=C/C(O)CC(O)CC(=O)O)CCC3 (stereo not shown) [Compound I-5-8] |  | 0.32 | 0% | 63.6% |  |
| O=C(O)CC(O)CC(O)/C=C/c1c(C2CC2)nc2sc3c(c2c1-c1ccc(F)cc1)CCC3 (stereo not shown) [Compound I-5-9] |  | 2.9 | 0% | 62.4% |  |
| O=C(O)CC(O)CC(O)/C=C/c1c(C2CC2)nc2sc3c(c2c1-c1ccc(F)cc1)CCCCC3 (stereo not shown) [Compound I-5-10] |  | 0.21 | 0% | 53.6% |  |
| O=C(O)CC(O)CC(O)/C=C/c1c(C2CC2)nc2sccc2c1-c1ccc(F)cc1 (stereo not shown) [Compound I-5-11] | 60 |  |  |  | percent decrease of counts relative to control group (Test C) [1]: 65% |
| CCOC(=O)CC(=O)CC(O)/C=C/c1c(C(C)C)nc2sc(C)cc2c1-c1ccc(F)cc1 (stereo not shown) [II-2] | 152 |  |  |  |  |
